Among the data in the NIST ThermoML archive (doi:10.1021/je8002964) are mass density values, retold here.

± gives the expanded uncertainty stated by the source.

The conditions of this data set: 298.15 K; 101.33 kPa; Liquid.
With `CC(C)O` [propan-2-ol], the mass density worked out at 781.4 ± 0.5 kg/m3.
Under `CO` [methanol] stands 787 ± 0.4 kg/m3; under `C1CCCCC1` [cyclohexane], 774 ± 0.3 kg/m3.
For `CCCCCCC` [heptane], the mass density turned out to be 680 ± 0.7 kg/m3.
With `OCC(F)(F)F` [2,2,2-trifluoroethanol], the mass density is given as 1382.4 ± 1.2 kg/m3.
